Source: ChEMBL document CHEMBL4014283, “Structural insights of SmKDAC8 inhibitors: Targeting Schistosoma epigenetics through a combined structure-based 3D QSAR, in vitro and synthesis strategy” (Bioorg Med Chem, 2017)
Calls of active or inactive are those of the source. The calls are words filed in the database; no cut-off is given here.

What was measured:
Histone deacetylase 8 = biological target: T1, Histone deacetylase 8 (Schistosoma mansoni, UniProt A5H660); assay: Inhibition of Schistosoma mansoni KDAC8 using (FAM)-labeled peptide as substrate after 60 mins by microfluidic assay; settings: read-out: IC50
T1 sequence (A5H660 whole entry): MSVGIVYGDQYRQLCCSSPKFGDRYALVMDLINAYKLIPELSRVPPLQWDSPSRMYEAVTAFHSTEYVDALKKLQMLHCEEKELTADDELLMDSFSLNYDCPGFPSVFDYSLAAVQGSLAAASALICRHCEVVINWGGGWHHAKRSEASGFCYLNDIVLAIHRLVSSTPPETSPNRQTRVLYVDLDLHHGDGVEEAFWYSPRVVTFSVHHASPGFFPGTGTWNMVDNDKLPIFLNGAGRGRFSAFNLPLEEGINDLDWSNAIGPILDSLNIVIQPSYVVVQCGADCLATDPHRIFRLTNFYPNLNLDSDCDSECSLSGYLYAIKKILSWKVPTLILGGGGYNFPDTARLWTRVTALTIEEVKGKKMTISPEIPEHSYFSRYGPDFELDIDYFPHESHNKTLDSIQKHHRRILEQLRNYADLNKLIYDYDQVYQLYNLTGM

[1] = biological target: T2, Histone deacetylase 8 (Schistosoma mansoni) (UniProt A5H660); assay: Inhibition of Schistosoma mansoni KDAC8 at 30 uM using (FAM)-labeled peptide as substrate after 60 mins by microfluidic assay
T2 sequence (whole entry): T1 sequence (A5H660 whole entry)

## COC(=O)CCCCN1C(=O)[C@H](Cc2cc3ccccc3n2C(=O)OC(C)(C)C)N=C(c2ccccc2)c2ccccc21
Histone deacetylase 8
  IC50: > 30 µM
[1]
  inhibition: 0%

## O=C(O)CCCCN1C(=O)[C@H](Cc2cncn2C(c2ccccc2)(c2ccccc2)c2ccccc2)N=C(c2ccccc2)c2ccccc21
Histone deacetylase 8
  IC50: > 30 µM
[1]
  inhibition: 0%

## COC(=O)CCCCN1C(=O)[C@H](CCCNC(=N)NS(=O)(=O)c2c(C)c(C)c3c(c2C)CC(C)(C)O3)N=C(c2ccccc2)c2ccccc21
Histone deacetylase 8
  IC50: > 30 µM
[1]
  inhibition: 0%

## CC(C)(C)OC(=O)CC[C@@H]1N=C(c2ccccc2)c2ccccc2N(CCCCC(=O)O)C1=O
Histone deacetylase 8
  IC50: > 30 µM
[1]
  inhibition: 0%

## CC(C)(C)Oc1ccc(C[C@@H]2N=C(c3ccccc3)c3ccccc3NC2=O)cc1
Histone deacetylase 8
  IC50: > 30 µM
[1]
  inhibition: 0%

## CC(C)(C)OC(=O)C[C@H]1N=C(c2ccccc2)c2ccccc2NC1=O
Histone deacetylase 8
  IC50: > 30 µM
[1]
  inhibition: 0%

## CC(C)(C)OC(=O)C[C@@H]1N=C(c2ccccc2)c2ccccc2N(CCCCC(=O)O)C1=O
Histone deacetylase 8
  IC50: > 30 µM
[1]
  inhibition: 0%

## CC(C)(C)OC(=O)C[C@@H]1N=C(c2ccccc2)c2ccccc2NC1=O
Histone deacetylase 8
  IC50: > 30 µM
[1]
  inhibition: 0%

## O=C(CCCCN1C(=O)[C@H](CCC(=O)NC(c2ccccc2)(c2ccccc2)c2ccccc2)N=C(c2ccccc2)c2ccccc21)NO
Histone deacetylase 8
  IC50: > 30 µM
[1]
  inhibition: 32.1%

## CC(C)(C)OC(=O)NCCCC[C@@H]1N=C(c2ccccc2)c2ccccc2NC1=O
Histone deacetylase 8
  IC50: > 30 µM
[1]
  inhibition: 0%

## O=C(O)C[C@H]1N=C(c2ccccc2)c2ccccc2NC1=O
Histone deacetylase 8
  IC50: > 30 µM
[1]
  inhibition: 0%

## COC(=O)CCCCN1C(=O)[C@H](COC(C)(C)C)N=C(c2ccccc2)c2ccccc21
Histone deacetylase 8
  IC50: > 30 µM
[1]
  inhibition: 0%

## COC(=O)CCCCN1C(=O)CN=C(c2ccccc2)c2ccccc21
Histone deacetylase 8
  IC50: > 30 µM
[1]
  inhibition: 0%

## C[C@@H]1N=C(c2ccccc2)c2ccccc2N(CCCCC(=O)NO)C1=O
Histone deacetylase 8
  IC50: > 30 µM
[1]
  inhibition: 16.9%

## Cc1c(C)c(S(=O)(=O)NC(=N)NCCC[C@@H]2N=C(c3ccccc3)c3ccccc3NC2=O)c(C)c2c1OC(C)(C)C2
Histone deacetylase 8
  IC50: > 30 µM
[1]
  inhibition: 0%

## O=C(O)CCCCN1C(=O)[C@H](Cc2ccccc2)N=C(c2ccccc2)c2ccccc21
Histone deacetylase 8
  IC50: > 30 µM
[1]
  inhibition: 0%

## CC(C)(C)OC(=O)n1c(C[C@@H]2N=C(c3ccccc3)c3ccccc3N(CCCCC(=O)NO)C2=O)cc2ccccc21
Histone deacetylase 8
  IC50: > 30 µM
[1]
  inhibition: 12.5%

## O=C(CCCCN1C(=O)[C@H](Cc2ccc(O)cc2)N=C(c2ccccc2)c2ccccc21)NO
Histone deacetylase 8
  IC50: > 30 µM
[1]
  inhibition: 0%

## CC(C)(C)OC(=O)NCCCC[C@@H]1N=C(c2ccccc2)c2ccccc2N(CCCCC(=O)NO)C1=O
Histone deacetylase 8
  IC50: > 30 µM
[1]
  inhibition: 25.1%

## CCCCCCCC(=O)SCC/C=C/[C@@H]1CC(=O)NCc2nc(cs2)C2=N[C@@](C)(CS2)C(=O)N[C@@H](C(C)C)C(=O)O1 [LARGAZOLE]
Histone deacetylase 8
  IC50: > 30 µM
[1]
  inhibition: 4%

## CC(C)(C)OC[C@@H]1N=C(c2ccccc2)c2ccccc2N(CCCCC(=O)O)C1=O
Histone deacetylase 8
  IC50: > 30 µM
[1]
  inhibition: 0%

## O=C(O)CC[C@H]1N=C(c2ccccc2)c2ccccc2NC1=O
Histone deacetylase 8
  IC50: > 30 µM
[1]
  inhibition: 0%

## CC(C)(C)SC[C@H]1N=C(c2ccccc2)c2ccccc2NC1=O
Histone deacetylase 8
  IC50: > 30 µM
[1]
  inhibition: 0%

## O=C(O)C[C@@H]1N=C(c2ccccc2)c2ccccc2N(CCCCC(=O)NO)C1=O
Histone deacetylase 8
  IC50: > 30 µM
[1]
  inhibition: 12.4%

## O=C(CC[C@@H]1N=C(c2ccccc2)c2ccccc2NC1=O)NC(c1ccccc1)(c1ccccc1)c1ccccc1
Histone deacetylase 8
  IC50: > 30 µM
[1]
  inhibition: 10.4%

## COC(=O)CCCCN1C(=O)[C@H]([C@@H](C)OCc2ccccc2)N=C(c2ccccc2)c2ccccc21
Histone deacetylase 8
  IC50: > 30 µM
[1]
  inhibition: 0%

## C[C@@H]1N=C(c2ccccc2)c2ccccc2NC1=O
Histone deacetylase 8
  IC50: > 30 µM
[1]
  inhibition: 0%

## CC[C@H](C)[C@@H]1N=C(c2ccccc2)c2ccccc2N(CCCCC(=O)OC)C1=O
Histone deacetylase 8
  IC50: > 30 µM
[1]
  inhibition: 0%

## CC(C)(C)OC(=O)NCCCC[C@@H]1N=C(c2ccccc2)c2ccccc2N(CCCCC(=O)O)C1=O
Histone deacetylase 8
  IC50: > 30 µM
[1]
  inhibition: 0%

## O=C(CCCNC(=O)C[C@@H]1N=C(c2ccccc2)c2ccccc2NC1=O)NO
Histone deacetylase 8
  IC50: 12.8 µM
[1]
  inhibition: 70.3%

## CC(C)(C)Oc1ccc(C[C@@H]2N=C(c3ccccc3)c3ccccc3N(CCCCC(=O)O)C2=O)cc1
Histone deacetylase 8
  IC50: > 30 µM
[1]
  inhibition: 0%

## COC(=O)CCCCN1C(=O)[C@H](C)N=C(c2ccccc2)c2ccccc21
Histone deacetylase 8
  IC50: > 30 µM
[1]
  inhibition: 0%

## CC[C@H](C)[C@@H]1N=C(c2ccccc2)c2ccccc2NC1=O
Histone deacetylase 8
  IC50: > 30 µM
[1]
  inhibition: 0%

## CCC(C)[C@@H]1N=C(c2ccccc2)c2ccccc2N(CCCCC(=O)NO)C1=O (single isomer, unassigned)
Histone deacetylase 8
  IC50: > 30 µM
[1]
  inhibition: 11.7%

## O=C(O)CCCCN1C(=O)[C@H](CC(=O)O)N=C(c2ccccc2)c2ccccc21
Histone deacetylase 8
  IC50: > 30 µM
[1]
  inhibition: 0%

## COC(=O)CCCCN1C(=O)[C@H](C(C)C)N=C(c2ccccc2)c2ccccc21
Histone deacetylase 8
  IC50: > 30 µM
[1]
  inhibition: 0%

## O=C(O)C[C@@H]1N=C(c2ccccc2)c2ccccc2NC1=O
Histone deacetylase 8
  IC50: > 30 µM
[1]
  inhibition: 0%

## O=C(CCCCN1C(=O)[C@H](CCC(=O)NO)N=C(c2ccccc2)c2ccccc21)NO
Histone deacetylase 8
  IC50: > 30 µM
[1]
  inhibition: 33.5%

## CC(C)(C)OC(=O)C[C@@H]1N=C(c2ccccc2)c2ccccc2N(CCCCC(=O)NO)C1=O
Histone deacetylase 8
  IC50: > 30 µM
[1]
  inhibition: 38.8%

## O=C(CCCCN1C(=O)[C@H](CO)N=C(c2ccccc2)c2ccccc21)NO
Histone deacetylase 8
  IC50: > 30 µM
[1]
  inhibition: 0.46%

## CC(C)(C)OC(=O)CC[C@@H]1N=C(c2ccccc2)c2ccccc2NC1=O
Histone deacetylase 8
  IC50: > 30 µM
[1]
  inhibition: 0%

## O=C(CCCCN1C(=O)[C@H](Cc2cncn2C(c2ccccc2)(c2ccccc2)c2ccccc2)N=C(c2ccccc2)c2ccccc21)NO
Histone deacetylase 8
  IC50: > 30 µM
[1]
  inhibition: 3.81%

## N=C(N)NCCC[C@@H]1N=C(c2ccccc2)c2ccccc2N(CCCCC(=O)NO)C1=O
Histone deacetylase 8
  IC50: > 30 µM
[1]
  inhibition: 23.5%

## O=C(O)CCCCN1C(=O)[C@H](CC(=O)NC(c2ccccc2)(c2ccccc2)c2ccccc2)N=C(c2ccccc2)c2ccccc21
Histone deacetylase 8
  IC50: > 30 µM
[1]
  inhibition: 0%

## CC(C)C[C@@H]1N=C(c2ccccc2)c2ccccc2NC1=O
Histone deacetylase 8
  IC50: > 30 µM
[1]
  inhibition: 0%

## COC(=O)CCCCN1C(=O)[C@H](Cc2ccccc2)N=C(c2ccccc2)c2ccccc21
Histone deacetylase 8
  IC50: > 30 µM
[1]
  inhibition: 0%

## O=C(CCCCN1C(=O)[C@H](Cc2ccccc2)N=C(c2ccccc2)c2ccccc21)NO
Histone deacetylase 8
  IC50: > 30 µM
[1]
  inhibition: 14.4%

## COC(=O)CCCCN1C(=O)[C@H](CC(=O)NC(c2ccccc2)(c2ccccc2)c2ccccc2)N=C(c2ccccc2)c2ccccc21
Histone deacetylase 8
  IC50: > 30 µM
[1]
  inhibition: 2.19%

## O=C1Nc2ccccc2C(c2ccccc2)=N[C@H]1Cc1cn(C(c2ccccc2)(c2ccccc2)c2ccccc2)cn1
Histone deacetylase 8
  IC50: > 30 µM
[1]
  inhibition: 9.68%

## CC(C)[C@@H]1N=C(c2ccccc2)c2ccccc2N(CCCCC(=O)O)C1=O
Histone deacetylase 8
  IC50: > 30 µM
[1]
  inhibition: 0%

## CC(C)[C@@H]1NC(=O)[C@H]2CCCN2C(=O)[C@@H]2CCCN2C(=O)C[C@@H](C(=O)NCCCC(=O)NO)NC1=O
Histone deacetylase 8
  IC50: > 30 µM
[1]
  inhibition: 21 to 31.9%

## CC(=O)SCC/C=C/[C@@H]1CC(=O)NCc2ccc(cc2)C2=N[C@@](C)(CS2)C(=O)N[C@@H](C(C)C)C(=O)O1
Histone deacetylase 8
  IC50: > 30 µM
[1]
  inhibition: inactive

## COC(=O)CCCCN1C(=O)[C@H](CCCCNC(=O)OC(C)(C)C)N=C(c2ccccc2)c2ccccc21
Histone deacetylase 8
  IC50: > 30 µM
[1]
  inhibition: 0%

## NC(=O)C[C@@H]1N=C(c2ccccc2)c2ccccc2N(CCCCC(=O)NO)C1=O
Histone deacetylase 8
  IC50: > 30 µM
[1]
  inhibition: 0%

## O=C(CC[C@H]1N=C(c2ccccc2)c2ccccc2NC1=O)NO
Histone deacetylase 8
  IC50: > 30 µM
[1]
  inhibition: 24%

## O=C(C[C@@H]1N=C(c2ccccc2)c2ccccc2NC1=O)NO
Histone deacetylase 8
  IC50: > 30 µM
[1]
  inhibition: 0%

## O=C(CC[C@@H]1N=C(c2ccccc2)c2ccccc2NC1=O)NO
Histone deacetylase 8
  IC50: > 30 µM
[1]
  inhibition: 25.9%
